Among the data in the supplement of paper PMC10307832 are relative viability values, retold here.

What all share (assay): relative viability (nuclei count vs DMSO), 5 days (fraction); higher = more cells survive
Compound in the assay “Idelalisib + Luminespib”: CC[C@H](Nc1ncnc2[nH]cnc12)c1nc2cccc(F)c2c(=O)n1-c1ccccc1 [Idelalisib] + CCNC(=O)c1noc(-c2cc(C(C)C)c(O)cc2O)c1-c1ccc(CN2CCOCC2)cc1 [Luminespib] (partner 0.01 µM)
An outline of the steps:
(§1)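 Values are medians from duplicate plates. Each reflects relative viability, defined as the nuclei count of treated wells over that of vehicle wells. Lung cancer cell lines in 1536-well plates were pin-tool dosed one day after seeding with one drug alone or with a fixed anchor-drug dose plus five library-drug doses (not always all listed) in √10 steps, then fixed, stained and imaged at 4× after 5 days.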

Compound in the assay “Idelalisib + Phenformin”: CC[C@H](Nc1ncnc2[nH]cnc12)c1nc2cccc(F)c2c(=O)n1-c1ccccc1 [Idelalisib] + N=C(N)NC(=N)NCCc1ccccc1 [Phenformin] (partner 250 µM)
The gist of the method: as §1

Compound in the assay “Pemetrexed + Alpelisib”: Nc1nc2[nH]cc(CCc3ccc(C(=O)N[C@@H](CCC(=O)O)C(=O)O)cc3)c2c(=O)[nH]1 [Pemetrexed] + Cc1nc(NC(=O)N2CCC[C@H]2C(N)=O)sc1-c1ccnc(C(C)(C)C(F)(F)F)c1 [Alpelisib] (partner 2 µM)
An outline of the steps:
as §1

Compound in the assay “Pemetrexed + Vorinostat”: Nc1nc2[nH]cc(CCc3ccc(C(=O)N[C@@H](CCC(=O)O)C(=O)O)cc3)c2c(=O)[nH]1 [Pemetrexed] + O=C(CCCCCCC(=O)Nc1ccccc1)NO [Vorinostat] (partner 1 µM)
An outline of the steps: as §1

Take NCI-H596: the relative viability with Idelalisib + Luminespib (first compound 0.04 µM) was determined as 1.13; in the assay with Idelalisib + Luminespib (first compound 0.1265 µM), 0.925; in the assay with Idelalisib + Luminespib (first compound 0.4 µM) it was 0.827; with Idelalisib + Luminespib (first compound 1.265 µM) it was 0.905; with Idelalisib + Luminespib (first compound 4 µM) it was 0.847; in the assay with Idelalisib + Phenformin (first compound 0.04 µM), 0.75. Also, the relative viability was determined as 0.765 with Idelalisib + Phenformin (first compound 0.1265 µM); 0.689 with Idelalisib + Phenformin (first compound 0.4 µM); 0.731 with Idelalisib + Phenformin (first compound 1.265 µM); 0.616 with Idelalisib + Phenformin (first compound 4 µM); 0.409 with Pemetrexed + Alpelisib (first compound 0.002 µM); 0.485 in the assay with Pemetrexed + Alpelisib (first compound 0.006325 µM). Further, the relative viability amounted to 0.593 with Pemetrexed + Alpelisib (first compound 0.02 µM); 0.39 with Pemetrexed + Alpelisib (first compound 0.06325 µM); 0.374 with Pemetrexed + Alpelisib (first compound 0.2 µM); 0.707 in the assay with Pemetrexed + Vorinostat (first compound 0.002 µM); 0.577 in the assay with Pemetrexed + Vorinostat (first compound 0.006325 µM); 0.576 with Pemetrexed + Vorinostat (first compound 0.02 µM). Also, the relative viability in the assay with Pemetrexed + Vorinostat (first compound 0.06325 µM) was determined as 0.468; with Pemetrexed + Vorinostat (first compound 0.2 µM), 0.385.

RERF-LC-KJ: the relative viability with Idelalisib + Luminespib (first compound 0.04 µM) came to 1.31; with Idelalisib + Luminespib (first compound 0.1265 µM), 1.33; with Idelalisib + Luminespib (first compound 0.4 µM), 1.12; with Idelalisib + Luminespib (first compound 1.265 µM), 1.19; in the assay with Idelalisib + Luminespib (first compound 4 µM) it was 1.07; with Idelalisib + Phenformin (first compound 0.04 µM), 0.442. In addition, the relative viability turned out to be 0.438 in the assay with Idelalisib + Phenformin (first compound 0.1265 µM); 0.419 with Idelalisib + Phenformin (first compound 0.4 µM); 0.44 in the assay with Idelalisib + Phenformin (first compound 1.265 µM); 0.373 in the assay with Idelalisib + Phenformin (first compound 4 µM); 1.12 with Pemetrexed + Alpelisib (first compound 0.002 µM); 0.774 with Pemetrexed + Alpelisib (first compound 0.006325 µM). Also, the relative viability in the assay with Pemetrexed + Alpelisib (first compound 0.02 µM) was determined as 0.84; with Pemetrexed + Alpelisib (first compound 0.06325 µM), 0.868; in the assay with Pemetrexed + Alpelisib (first compound 0.2 µM), 0.538; in the assay with Pemetrexed + Vorinostat (first compound 0.002 µM), 0.621; in the assay with Pemetrexed + Vorinostat (first compound 0.006325 µM) it was 0.581; in the assay with Pemetrexed + Vorinostat (first compound 0.02 µM), 0.762. Besides, the relative viability turned out to be 0.597 in the assay with Pemetrexed + Vorinostat (first compound 0.06325 µM) and 0.5 with Pemetrexed + Vorinostat (first compound 0.2 µM).

Consider NCI-H647, for which the relative viability is 0.171 with Idelalisib + Luminespib (first compound 0.04 µM); 0.141 with Idelalisib + Luminespib (first compound 0.1265 µM); 0.241 with Idelalisib + Luminespib (first compound 1.265 µM); 0.121 with Idelalisib + Luminespib (first compound 4 µM); 0.673 in the assay with Idelalisib + Phenformin (first compound 0.04 µM); 0.498 with Idelalisib + Phenformin (first compound 0.1265 µM). For the same cell line, the relative viability is 0.38 with Idelalisib + Phenformin (first compound 1.265 µM); 0.299 with Idelalisib + Phenformin (first compound 4 µM); 1.02 in the assay with Pemetrexed + Alpelisib (first compound 0.006325 µM); 1.3 with Pemetrexed + Alpelisib (first compound 0.02 µM); 0.836 in the assay with Pemetrexed + Alpelisib (first compound 0.06325 µM); 0.296 with Pemetrexed + Alpelisib (first compound 0.2 µM). Further, the relative viability with Pemetrexed + Vorinostat (first compound 0.002 µM) turned out to be 0.387; in the assay with Pemetrexed + Vorinostat (first compound 0.006325 µM), 0.479; with Pemetrexed + Vorinostat (first compound 0.02 µM) it was 0.594; with Pemetrexed + Vorinostat (first compound 0.06325 µM) it was 0.458; in the assay with Pemetrexed + Vorinostat (first compound 0.2 µM), 0.171.

As to NCI-H1734, the relative viability was 0.247 with Idelalisib + Luminespib (first compound 0.04 µM); 0.184 with Idelalisib + Luminespib (first compound 0.1265 µM); 0.203 with Idelalisib + Luminespib (first compound 0.4 µM); 0.192 in the assay with Idelalisib + Luminespib (first compound 1.265 µM); 0.155 in the assay with Idelalisib + Luminespib (first compound 4 µM); 0.455 with Idelalisib + Phenformin (first compound 0.04 µM). The relative viability came to 0.446 in the assay with Idelalisib + Phenformin (first compound 0.1265 µM); 0.344 in the assay with Idelalisib + Phenformin (first compound 0.4 µM); 0.377 in the assay with Idelalisib + Phenformin (first compound 1.265 µM); 0.377 with Idelalisib + Phenformin (first compound 4 µM); 0.694 with Pemetrexed + Alpelisib (first compound 0.002 µM); 0.731 with Pemetrexed + Alpelisib (first compound 0.006325 µM). The relative viability was determined as 0.629 in the assay with Pemetrexed + Alpelisib (first compound 0.02 µM); 0.632 in the assay with Pemetrexed + Alpelisib (first compound 0.06325 µM); 0.698 with Pemetrexed + Alpelisib (first compound 0.2 µM); 0.794 with Pemetrexed + Vorinostat (first compound 0.002 µM); 0.725 in the assay with Pemetrexed + Vorinostat (first compound 0.006325 µM); 0.931 with Pemetrexed + Vorinostat (first compound 0.02 µM). The relative viability with Pemetrexed + Vorinostat (first compound 0.06325 µM) was found to be 0.778; with Pemetrexed + Vorinostat (first compound 0.2 µM), 0.708.

SK-LU-1: the relative viability in the assay with Idelalisib + Luminespib (first compound 0.04 µM) came to 0.225; with Idelalisib + Luminespib (first compound 0.1265 µM), 0.189; with Idelalisib + Luminespib (first compound 0.4 µM), 0.185; in the assay with Idelalisib + Luminespib (first compound 1.265 µM), 0.188; in the assay with Idelalisib + Luminespib (first compound 4 µM), 0.205; with Idelalisib + Phenformin (first compound 0.04 µM) it was 0.601. In addition, the relative viability amounted to 0.57 with Idelalisib + Phenformin (first compound 0.1265 µM); 0.433 with Idelalisib + Phenformin (first compound 0.4 µM); 0.55 with Idelalisib + Phenformin (first compound 1.265 µM); 0.468 with Idelalisib + Phenformin (first compound 4 µM); 0.874 with Pemetrexed + Alpelisib (first compound 0.002 µM); 1.02 with Pemetrexed + Alpelisib (first compound 0.006325 µM). Further, the relative viability with Pemetrexed + Alpelisib (first compound 0.02 µM) stood at 1.04; with Pemetrexed + Alpelisib (first compound 0.06325 µM) it was 0.931; in the assay with Pemetrexed + Alpelisib (first compound 0.2 µM) it was 1.02; in the assay with Pemetrexed + Vorinostat (first compound 0.002 µM), 0.684; in the assay with Pemetrexed + Vorinostat (first compound 0.006325 µM) it was 0.782; with Pemetrexed + Vorinostat (first compound 0.02 µM) it was 0.887. The figures for the relative viability in the assay with Pemetrexed + Vorinostat (first compound 0.06325 µM) and in the assay with Pemetrexed + Vorinostat (first compound 0.2 µM) were 0.763 and 0.795, respectively.

In the case of NCI-H1395, the relative viability in the assay with Idelalisib + Luminespib (first compound 0.04 µM) was found to be 0.675; with Idelalisib + Luminespib (first compound 0.1265 µM) it was 0.72; with Idelalisib + Luminespib (first compound 0.4 µM), 0.662; with Idelalisib + Luminespib (first compound 1.265 µM), 0.694; in the assay with Idelalisib + Luminespib (first compound 4 µM), 0.645; with Idelalisib + Phenformin (first compound 0.04 µM) it was 0.476. Moreover, the relative viability is 0.421 in the assay with Idelalisib + Phenformin (first compound 0.1265 µM); 0.423 with Idelalisib + Phenformin (first compound 0.4 µM); 0.445 with Idelalisib + Phenformin (first compound 1.265 µM); 0.439 in the assay with Idelalisib + Phenformin (first compound 4 µM); 0.964 with Pemetrexed + Alpelisib (first compound 0.002 µM); 0.916 with Pemetrexed + Alpelisib (first compound 0.006325 µM). Further, the relative viability with Pemetrexed + Alpelisib (first compound 0.02 µM) came to 1.14; in the assay with Pemetrexed + Alpelisib (first compound 0.06325 µM), 1.14; in the assay with Pemetrexed + Alpelisib (first compound 0.2 µM), 1.02; in the assay with Pemetrexed + Vorinostat (first compound 0.002 µM), 0.513; in the assay with Pemetrexed + Vorinostat (first compound 0.006325 µM) it was 0.871; in the assay with Pemetrexed + Vorinostat (first compound 0.02 µM) it was 0.959. The relative viability with Pemetrexed + Vorinostat (first compound 0.06325 µM) amounted to 0.7; in the assay with Pemetrexed + Vorinostat (first compound 0.2 µM), 0.738.

As to COR-L23, the relative viability worked out at 0.848 with Idelalisib + Luminespib (first compound 0.04 µM); 0.681 with Idelalisib + Luminespib (first compound 0.1265 µM); 0.699 with Idelalisib + Luminespib (first compound 0.4 µM); 0.819 with Idelalisib + Luminespib (first compound 1.265 µM); 0.549 in the assay with Idelalisib + Luminespib (first compound 4 µM); 0.439 in the assay with Idelalisib + Phenformin (first compound 0.04 µM). Besides, the relative viability amounted to 0.39 with Idelalisib + Phenformin (first compound 0.1265 µM); 0.411 in the assay with Idelalisib + Phenformin (first compound 0.4 µM); 0.433 in the assay with Idelalisib + Phenformin (first compound 1.265 µM); 0.517 in the assay with Idelalisib + Phenformin (first compound 4 µM); 0.803 with Pemetrexed + Alpelisib (first compound 0.002 µM); 0.719 in the assay with Pemetrexed + Alpelisib (first compound 0.006325 µM). Besides, the relative viability with Pemetrexed + Alpelisib (first compound 0.02 µM) came to 0.72; with Pemetrexed + Alpelisib (first compound 0.06325 µM), 0.259; with Pemetrexed + Alpelisib (first compound 0.2 µM), 0.176; with Pemetrexed + Vorinostat (first compound 0.002 µM) it was 0.474; with Pemetrexed + Vorinostat (first compound 0.006325 µM), 0.398; in the assay with Pemetrexed + Vorinostat (first compound 0.02 µM), 0.424. The figures for the relative viability with Pemetrexed + Vorinostat (first compound 0.06325 µM) and with Pemetrexed + Vorinostat (first compound 0.2 µM) were 0.186 and 0.136, respectively.
